Results published in ChEMBL document CHEMBL1133282, “Synthesis and preliminary biological evaluation of 4,6-disubstituted 3-cyanopyridin-2(1H)-ones, a new class of calcium entry blockers” (Bioorg Med Chem Lett, 2000).

How the values were obtained:
Format in all cases: functional
Rattus norvegicus [1] = species on record: Rattus norvegicus; assay: Tested in vitro on K+ -depolarized rat aorta strips to evaluate its ability to relax the initial contraction induced by K
Rattus norvegicus [2] = species on record: Rattus norvegicus; assay: Vasorelaxing activity expressed as maximum smooth muscle relaxation at 1*10e-4 M
Rattus norvegicus [3] = species on record: Rattus norvegicus; assay: Vasorelaxing activity expressed as maximum smooth muscle relaxation at 1*10e-5 M

SMILES	IC50 (Rattus norvegicus [1]) [nM]	Max relaxation (Rattus norvegicus [2]) [%]	Max relaxation (Rattus norvegicus [3]) [%]
N#Cc1c(-c2ccccc2)cc(-c2ccccc2O)[nH]c1=O	0.95	23.86	
COc1ccc([C@@H]2Sc3ccccc3N(CCN(C)C)C(=O)[C@@H]2OC(C)=O)cc1 [DILTIAZEM]	48	97.86	
N#Cc1c(-c2cccc([N+](=O)[O-])c2)cc(-c2ccccc2O)nc1O	500	64	
N#Cc1c(-c2ccccc2Br)cc(-c2ccccc2O)nc1O	17000	35.29	
N#Cc1c(-c2ccccc2Cl)cc(-c2ccccc2O)nc1O	30	79.78	

Continued, in another order:

IC50 (Rattus norvegicus [1]) [nM]	SMILES	Max relaxation (Rattus norvegicus [2]) [%]	Max relaxation (Rattus norvegicus [3]) [%]
380	COc1ccc(-c2cc(-c3ccccc3O)nc(O)c2C#N)c(OC)c1	40	
1000	Cc1ccccc1-c1cc(-c2ccccc2O)nc(O)c1C#N	89.17	
12	COc1ccccc1-c1cc(-c2ccccc2O)nc(O)c1C#N	99.54	
1.1	COc1ccc(OC)c(-c2cc(-c3ccccc3O)nc(O)c2C#N)c1		95.51
